Active and inactive are the calls of the source. The rule behind the calls is not given here.
What was measured:
[1] = Solubility of the compound in methanol; assay type: physicochemical
[2] = species on record: Gallus gallus; assay: Binding affinity to monoamine transporter in dissociated chick brain stem cells assessed as receptor-mediated compound uptake; assay type: cell-based
[3] = test system: HEK293; assay: Binding affinity to human monoamine transporter expressed in HEK293 cells assessed as receptor-mediated compound uptake; assay type: cell-based
[4] = Octanol-phosphate buffered saline partition coefficient, log K of the compound; assay type: physicochemical; conditions: for logD: octanol/phosphate buffered saline, read-out: log K
[5] = Solubility of the compound in DMSO; assay type: physicochemical
[6] = test system: Rattus norvegicus; assay: Toxicity in Sprague-Dawley rat assessed as change in mean breathing rate at 0.23 to 1 mM administered for 1 to 3 mins through polyethylene cannula in carotid artery measured after 200 to 400 seconds; assay type: organism-based; conditions: in vivo, other, 1000 µM
[7] = test system: Rattus norvegicus; assay: Toxicity in Sprague-Dawley rat assessed as change in blood pressure at 0.25 mM administered for 30 seconds through polyethylene cannula in carotid artery; assay type: organism-based; conditions: in vivo, other, 250 µM
[8] = test system: MLO-Y4; assay: Binding affinity to monoamine transporter in mouse MLO-Y4 cells assessed as receptor-mediated compound uptake at 20 uM by confocal microscopic analysis in presence of serotonin reuptake inhibitor clomipramine; assay type: cell-based
[9] = test system: Rattus norvegicus; assay: Toxicity in Sprague-Dawley rat assessed as prolonged reduction in NRM neurons activity at 0.23 to 1 mM administered for 1 to 3 mins through polyethylene cannula in carotid artery measured 30 mins post dose; assay type: organism-based; conditions: in vivo, other, 0.5 h, 1000 µM
[10] = test system: Brain; assay: Drug uptake in Sprague-Dawley rat brain administered through intra-arterial injection by fluorescence microscopy analysis; assay type: ADME, tissue-based; conditions: in vivo, other
[11] = test system: Rattus norvegicus; assay: Toxicity in Sprague-Dawley rat assessed as change in heart rate at 0.25 mM administered for 30 seconds through polyethylene cannula in carotid artery; assay type: organism-based; conditions: in vivo, other, 250 µM
[12] = test system: Rattus norvegicus; assay: Toxicity in Sprague-Dawley rat assessed as change in mean breathing rate at 0.23 to 1 mM administered for 1 to 3 mins through polyethylene cannula in carotid artery measured after 600 seconds; assay type: organism-based; conditions: in vivo, other, 10 min, 1000 µM
[13] = test system: Rattus norvegicus; assay: Toxicity in Sprague-Dawley rat assessed as change in mean breathing rate at 0.25 mM administered for 30 seconds through polyethylene cannula in carotid artery; assay type: organism-based; conditions: in vivo, other, 250 µM
[14] = Drug uptake in Sprague-Dawley rat blood platelet cells administered through intra-arterial injection by fluorescence microscopy analysis; assay type: ADME, cell-based; conditions: in vivo, other
[15] = test system: Rattus norvegicus; assay: Toxicity in Sprague-Dawley rat assessed as prolonged reduction in NRM neurons activity at 0.23 to 1 mM administered for 1 to 3 mins through polyethylene cannula in carotid artery measured immediately post dose; assay type: organism-based; conditions: in vivo, other, 1000 µM

Compound: NCCOc1cccc2c(O)cccc12
- solubility [1]: soluble
- Activity [2]: inactive
- Activity [3]: inactive
- logD [4]: 0.1
- solubility [5]: soluble

Compound: NCCc1ccc(O)c(O)c1 [DOPAMINE]
- logD [4]: -2.38

Compound: COc1cccc2c(OCCN)cccc12
- solubility [1]: soluble
- Activity [2]: inactive
- Activity [3]: inactive
- logD [4]: 0.28
- solubility [5]: soluble

Compound: NCCN1C(=O)c2cccc3c(N)ccc(c23)C1=O
- Activity [6]: Non-toxic
- Activity [7]: Non-toxic
- Activity [8]: inactive
- Activity [9]: Non-toxic
- Drug uptake [10]: Not Active
- solubility [1]: soluble
- Activity [2]: Active
- Activity [11]: Non-toxic
- Activity [12]: Non-toxic
- Activity [3]: Active
- logD [4]: -0.58
- solubility [5]: soluble
- Activity [13]: Non-toxic
- Drug uptake [14]: Active
- Activity [15]: Toxic

Compound: NCCc1ccc2ccc3cccc4ccc1c2c34
- solubility [1]: soluble
- Activity [2]: inactive
- Activity [3]: inactive
- logD [4]: 1.42
- solubility [5]: soluble

Compound: NCCc1c[nH]c2ccc(O)cc12 [SEROTONIN]
- logD [4]: -1.57

Compound: CN[C@H]1CC[C@@H](c2ccc(Cl)c(Cl)c2)c2ccccc21 [SERTRALINE]
- log K ([4]; octanol/water): 1.37

Compound: NCCc1c2ccccc2cc2ccccc12
- solubility [1]: soluble
- Activity [2]: inactive
- Activity [3]: inactive
- logD [4]: 1.1
- solubility [5]: soluble

Compound: NCCn1cc2c(nc1=O)Nc1ccccc1S2
- solubility [1]: soluble
- Activity [2]: Active
- Activity [3]: Active
- logD [4]: 0.65
- solubility [5]: soluble
